Experiment: Metabolic stability test (microsomal metabolism test)
Type: in vitro ADME
Details: pH 7.4; human-derived liver microsomes, test compound remaining after addition of NADP+ and incubation at 37°C for 30 minutes; read-out: metabolic stability of T/C%
Protocol: (Test Example 3 Metabolic stability test) 100 µL of 100 mM phosphate buffer solution (pH 7.4) containing 3 µM test compound was added to 100 µL of reaction solution containing 100 mM phosphate buffer solution (pH 7.4), 30 mM glucose 6-phosphate, 10 mM MgCl2·6H2O, 3 units/mL glucose 6-phosphate 1-dehydrogenase, and 0.3 to 1.5 mgP/mL human liver microsomes and the mixture was incubated at 37°C for 20 minutes. Then, 70 µL of 100 mM phosphate buffer solution (pH 7.4) containing 3 mM NADP^+ was added and the mixture was incubated at 37°C for 30 minutes to conduct a microsomal metabolism test. The metabolic stability was calculated according to the following formula: T/C (%) = ((concentration of test compound after addition of NADP)^+and incubation for30minutes)/((concentration of test compound before addition of NADP)^+) × 100. [formula] […]

| remaining at 0.5 h [%] | SMILES |
| --- | --- |
| ≥ 50 | CC(C)C1=C(C(=O)N2[C@H](C)CC[C@H]2C(=O)N2CCN(CCO)C3(CC3)C2)SC2=N[C@@](C)(c3ccc(Cl)nc3)[C@@H](c3ccc(Cl)cc3)N21 [Example 10, 2-{7-[(5R)-1-{[(5R,6S)-5-(4-chlorophenyl)-6-(6-chloropyridin-3-yl)-3-isopropyl-6-methyl-5,6-dihydroimidazo[2,1-b][1,3]thiazol-2-yl]carbonyl}-5-methyl-L-prolyl]-4,7-diazaspiro[2.5]oct-4-yl}ethanol] |
| ≥ 50 | CC(C)C1=C(C(=O)N2[C@H](C)CC[C@H]2C(=O)N2CCNC3(CC3)C2)SC2=N[C@@](C)(c3ccc(Cl)nc3)[C@@H](c3ccc(Cl)c(F)c3)N21 [Example 11, 7-[(5R)-1-{[(5R,6S)-5-(4-chloro-3-fluorophenyl)-6-(6-chloropyridin-3-yl)-3-isopropyl-6-methyl-5,6-dihydroimidazo[2,1-b] [1,3]thiazol-2-yl]carbonyl}-5-methyl-L-prolyl]-4,7-diazaspiro[2.5]octane] |
| ≥ 50 | CC(C)C1=C(C(=O)N2[C@H](C)CC[C@H]2C(=O)N2CCN(C)C3(CC3)C2)SC2=N[C@@](C)(c3ccc(Cl)nc3)[C@@H](c3ccc(Cl)c(F)c3)N21 [Example 12, 7-[(5R)-1-{[(5R,6S)-5-(4-chloro-3-fluorophenyl)-6-(6-chloropyridin-3-yl)-3-isopropyl-6-methyl-5,6-dihydroimidazo[2,1-b][1,3]thiazol-2-yl]carbonyl}-5-methyl-L-prolyl]-4-methyl-4,7-diazaspiro[2.5]octane] |
| ≥ 50 | CC(C)C1=C(C(=O)N2[C@H](C)CC[C@H]2C(=O)N2CCN(CCO)C3(CC3)C2)SC2=N[C@@](C)(c3ccc(Cl)nc3)[C@@H](c3ccc(Cl)c(F)c3)N21 [Example 13] |
| ≥ 50 | CCN1CCN(C(=O)[C@@H]2CC[C@@H](C)N2C(=O)C2=C(C(C)C)N3C(=N[C@@](C)(c4ccc(Cl)nc4)[C@H]3c3ccc(Cl)c(F)c3)S2)CC12CC2 [Example 14, 7-[(5R)-1-{[(5R,6S)-5-(4-chloro-3-fluorophenyl)-6-(6-chloropyridin-3-yl)-3-isopropyl-6-methyl-5,6-dihydroimidazo[2,1-b][1,3]thiazol-2-yl]carbonyl}-5-methyl-L-prolyl]-4-ethyl-4,7-diazaspiro[2.5]octane] |
| ≥ 50 | CC(C)C1=C(C(=O)N2[C@H](C)CC[C@H]2C(=O)N2C[C@@H](C)NC3(CC3)C2)SC2=N[C@@](C)(c3ccc(Cl)cc3)[C@@H](c3ccc(Cl)cc3)N21 [Example 16, (5R)-7-[(5R)-1-{[(5R,6S)-5,6-bis(4-chlorophenyl)-3-isopropyl-6-methyl-5,6-dihydroimidazo[2,1-b][1,3]thiazol-2-yl]carbonyl}-5-methyl-L-prolyl]-5-methyl-4,7-diazaspiro[2.5]octane] |
| ≥ 50 | CC(C)C1=C(C(=O)N2[C@H](C)CC[C@H]2C(=O)N2C[C@@H](C)NC3(CC3)C2)SC2=N[C@@](C)(c3ccc(Cl)nc3)[C@@H](c3ccc(Cl)c(F)c3)N21 [Example 17, (5R)-7-[(5R)-1-{ [(5R,6S)-5-(4-chloro-3-fluorophenyl)-6-(6-chloropyridin-3-yl)-3-isopropyl-6-methyl-5,6-dihydroimidazo[2,1-b][1,3]thiazol-2-yl]carbonyl}-5-methyl-L-prolyl]-5-methyl-4,7-diazaspiro[2.5]octane] |
| ≥ 50 | CC(C)C1=C(C(=O)N2[C@H](C)CC[C@H]2C(=O)N2C[C@@H](C)N(C)C3(CC3)C2)SC2=N[C@@](C)(c3ccc(Cl)nc3)[C@@H](c3ccc(Cl)c(F)c3)N21 [Example 18, (5R)-7-[(5R)-1-{[(5R,6S)-5-(4-chloro-3-fluorophenyl)-6-(6-chloropyridin-3-yl)-3-isopropyl-6-methyl-5,6-dihydroimidazo[2,1-b][1,3]thiazol-2-yl]carbonyl}-5-methyl-L-prolyl]-4,5-dimethyl-4,7-diazaspiro[2.5]octane] |
| ≥ 50 | CC(C)C1=C(C(=O)N2[C@H](C)CC[C@H]2C(=O)N2C[C@H](C)NC3(CC3)C2)SC2=N[C@@](C)(c3ccc(Cl)nc3)[C@@H](c3ccc(Cl)c(F)c3)N21 [Example 19, (5S)-7-[(5R)-1-([(5R,6S)-5-(4-chloro-3-fluorophenyl)-6-(6-chloropyridin-3-yl)-3-isopropyl-6-methyl-5,6-dihydroimidazo[2,1-b][1,3]thiazol-2-yl]carbonyl}-5-methyl-L-prolyl]-5-methyl-4,7-diazaspiro[2.5]octane] |
| ≥ 50 | CC(C)C1=C(C(=O)N2[C@H](C)CC[C@H]2C(=O)N2C[C@H](C)N(C)C3(CC3)C2)SC2=N[C@@](C)(c3ccc(Cl)nc3)[C@@H](c3ccc(Cl)c(F)c3)N21 [Example 20, (5S)-7-[(5R)-1-{[(5R,6S)-5-(4-chloro-3-fluorophenyl)-6-(6-chloropyridin-3-yl)-3-isopropyl-6-methyl-5,6-dihydroimidazo[2,1-b][1,3]thiazol-2-yl]carbonyl}-5-methyl-L-prolyl]-4,5-dimethyl-4,7-diazaspiro[2.5]octane] |
| ≥ 50 | CC(C)C1=C(C(=O)N2[C@H](C)CC[C@H]2C(=O)N2CC3(CC3)NC[C@@H]2C)SC2=N[C@@](C)(c3ccc(Cl)nc3)[C@@H](c3ccc(Cl)c(F)c3)N21 [Example 21, (6S)-7-[(5R)-1-{[(5R,6S)-5-(4-chloro-3-fluorophenyl)-6-(6-chloropyridin-3-yl)-3-isopropyl-6-methyl-5,6-dihydroimidazo[2,1-b][1,3]thiazol-2-yl]carbonyl}-5-methyl-L-prolyl]-6-methyl-4,7-diazaspiro[2.5]octane] |
| ≥ 50 | CC(C)C1=C(C(=O)N2[C@H](C)CC[C@H]2C(=O)N2CC3(CC3)N(C)C[C@@H]2C)SC2=N[C@@](C)(c3ccc(Cl)nc3)[C@@H](c3ccc(Cl)c(F)c3)N21 [Example 22, (6S)-7-[(5R)-1-{[(5R,6S)-5-(4-chloro-3-fluorophenyl)-6-(6-chloropyridin-3-yl)-3-isopropyl-6-methyl-5,6-dihydroimidazo[2,1-b][1,3]thiazol-2-yl]carbonyl}-5-methyl-L-prolyl]-4,6-dimethyl-4,7-diazaspiro[2.5]octane] |
| ≥ 50 | CC(C)C1=C(C(=O)N2[C@H](C)CC[C@H]2C(=O)N2CC3(CC3)NC[C@H]2C)SC2=N[C@@](C)(c3ccc(Cl)nc3)[C@@H](c3ccc(Cl)c(F)c3)N21 [Example 23, (6R)-7-[(5R)-1-{ [(5R,6S)-5-(4-chloro-3-fluorophenyl)-6-(6-chloropyridin-3-yl)-3-isopropyl-6-methyl-5,6-dihydroimidazo[2,1-b][1,3]thiazol-2-yl]carbonyl}-5-methyl-L-prolyl]-6-methyl-4,7-diazaspiro[2.5]octane] |
| ≥ 50 | CC(C)C1=C(C(=O)N2[C@H](C)CC[C@H]2C(=O)N2CC3(CC3)N(C)C[C@H]2C)SC2=N[C@@](C)(c3ccc(Cl)nc3)[C@@H](c3ccc(Cl)c(F)c3)N21 [Example 24, (6R)-7-[(5R)-1-{[(5R,6S)-5-(4-chloro-3-fluorophenyl)-6-(6-chloropyridin-3-yl)-3-isopropyl-6-methyl-5,6-dihydroimidazo[2,1-b][1,3]thiazol-2-yl]carbonyl}-5-methyl-L-prolyl]-4,6-dimethyl-4,7-diazaspiro[2.5]octane] |
| ≥ 50 | CC(C)C1=C(C(=O)N2[C@H](C)CC[C@H]2C(=O)N2CCNC3(CC3)C2)SC2=N[C@@](C)(c3ccc(F)cc3)[C@@H](c3ccc(Cl)c(F)c3)N21 [Example 25, 7-[(5R)-1-{[(5R,6S)-5-(4-chloro-3-fluorophenyl)-6-(4-fluorophenyl)-3-isopropyl-6-methyl-5,6-dihydroimidazo[2,1-b][1,3]thiazol-2-yl]carbonyl}-5-methyl-L-prolyl]-4,7-diazaspiro[2.5]octane] |
| ≥ 50 | CC(C)C1=C(C(=O)N2[C@H](C)CC[C@H]2C(=O)N2CCNC3(CC3)C2)SC2=N[C@@](C)(c3ccc(Cl)nc3)[C@@H](c3ccc(F)c(Cl)c3)N21 [Example 26, 7-[(5R)-1-{[(5R,6S)-5-(3-chloro-4-fluorophenyl)-6-(6-chloropyridin-3-yl)-3-isopropyl-6-methyl-5,6-dihydroimidazo[2,1-b][1,3]thiazol-2-yl]carbonyl}-5-methyl-L-prolyl]-4,7-diazaspiro[2.5]octane] |
| ≥ 50 | CC(C)C1=C(C(=O)N2[C@H](C)CC[C@H]2C(=O)N2CCNC3(CC3)C2)SC2=N[C@@](C)(c3ccc(Cl)c(N)c3)[C@@H](c3ccc(Cl)c(F)c3)N21 [Example 27, 2-chloro-5-[(5R,6S)-5-(4-chloro-3-fluorophenyl)-2-{[(2S,5R)-2-(4,7-diazaspiro[2.5]oct-7-ylcarbonyl)-5-methylpyrrolidin-1-yl]carbonyl}-3-isopropyl-6-methyl-5,6-dihydroimidazo[2,1-b][1,3]thiazol-6-yl]aniline] |
| ≥ 50 | CC(C)C1=C(C(=O)N2[C@H](C)CC[C@H]2C(=O)N2CCNC3(CC3)C2)SC2=N[C@@](C)(c3ccc(C#N)cc3)[C@@H](c3ccc(Cl)cc3)N21 [Example 28, 4-[(5R,6S)-5-(4-chlorophenyl)-2-{[(2S,5R)-2-(4,7-diazaspiro[2.5]oct-7-ylcarbonyl)-5-methylpyrrolidin-1-yl]carbonyl}-3-isopropyl-6-methyl-5,6-dihydroimidazo[2,1-b][1,3]thiazol-6-yl]benzonitrile] |
| ≥ 50 | CC(C)C1=C(C(=O)N2[C@H](C)CC[C@H]2C(=O)N2CCNC3(CC3)C2)SC2=N[C@@](C)(c3ccc(C#N)cc3)[C@@H](c3ccc(Cl)c(F)c3)N21 [Example 30, 4-[(5R,6S)-5-(4-chloro-3-fluorophenyl)-2-{[(2S,5R)-2-(4,7-diazaspiro[2.5]oct-7-ylcarbonyl)-5-methylpyrrolidin-1-yl]carbonyl}-3-isopropyl-6-methyl-5,6-dihydroimidazo[2,1-b][1,3]thiazol-6-yl]benzonitrile] |
